According to patent US9072676B2, “Cyclohexyl carbamate compounds as skin and/or hair lightening actives” (SYMRISE AG, priority 2010, dated 2015):

The compounds below were run on B16V mouse melanoma cells (assay: Depigmenting effect on melanoma cell cultures (inhibition of pigmentation)). Details: 96 h, read-out: IC50 (concentration at which pigmentation is inhibited by 50%).
Type: cell-based
Description: B16V mouse melanoma cells are disseminated in a 96-well microtitre plate in a concentration of 5×10^3 cells/well. After cultivation for 24 h at 37° C. and 5% CO2 in RPMI medium, enriched with 10% foetal calf serum, various concentrations of the test substances and 0.3 mM tyrosine and 10 nM α-MSH (α-melanocyte stimulating hormone) are added and incubated for a further 96 h. The maximum concentration of the test substances used corresponds to 0.1 times the value of the IC20 value of the cytotoxicity assay. Standards are incubated with kojic acid in concentrations of 0.01 mM, 0.1 mM and 1 mM in addition to tyrosine and α-MSH. Only tyrosine and α-MSH are added to the controls. After incubation, sodium lauryl sulfate and sodium hydroxide solution (final concentrations: 1 mM and 1 M respectively) are added to the culture medium and the absorption (A) is measured after 3 h at 400 nm.
The inhibition of pigmentation in the presence of the test compounds or kojic acid was calculated using the following equation: Inhibition of pigmentation (%)=100−[(Atest compound/Acontrol)×100] wherein
Atest compound=absorption of the wells with test substance and with cells
Acontrol=absorption of the wells without test substance, but with cells
From the inhibition of pigmentation (%) in a series of dilutions of test compounds, the IC50 for each test compound is calculated. This is the concentration of a test compound at which pigmentation is inhibited by 50%.

SMILES	IC50
CCNC(=O)OC1CC(C)CC(C)(C)C1 (centres unmarked) [BIO1572, Ethyl-carbamic acid 3,3,5-trimethyl-cyclohexyl ester]	63.1 µM
CCNC(=O)OC1CC2CCC1(C)C2(C)C (centres unmarked) [BIO1573, Ethyl-carbamic acid 1,7,7-trimethyl-bicyclo[2.2.1]hept-2-yl ester]	74.9 µM
COCCCNC(=O)OC1CC(C)CC(C)(C)C1 (centres unmarked) [BIO1574, (3-Methoxy-propyl)-carbamic acid 3,3,5-trimethyl-cyclohexyl ester]	9.5 µM

Same assay, conditions: B16V cells, 0.3 mM tyrosine and 10 nM α-MSH, 96 h incubation, absorption at 400 nm, read-out: IC50 (concentration at which pigmentation is inhibited by 50%)

SMILES	IC50
C=C(C)C1CCC(C)CC1OC(=O)NCC (centres unmarked) [BIO1551, Ethyl-carbamic acid 2-isopropenyl-5-methyl-cyclohexyl ester]	40.9 µM
CCNC(=O)OC1CC(C)CC(C)C1 (centres unmarked) [BIO1561, Ethyl-carbamic acid 3,5-dimethyl-cyclohexyl ester]	32.7 µM
C=C(C)C1CCC(C)CC1OC(=O)NCCCC (centres unmarked) [BIO1615, Butyl-carbamic acid 2-isopropenyl-5-methyl-cyclohexyl ester]	43 µM
CCCCNC(=O)OC1CC(C)CC(C)(C)C1 (centres unmarked) [BIO1616, n-Butyl-carbamic acid 3,3,5-trimethyl-cyclohexyl ester]	10.9 µM
CCCCNC(=O)OC1C(C)CCC(C)C1C (centres unmarked) [BIO1617, n-Butyl-carbamic acid 2,3,6-trimethyl-cyclohexyl ester]	15.4 µM
CC1CC(OC(=O)Nc2ccccc2O)CC(C)(C)C1 (centres unmarked) [BIO1642, (2-Hydroxy-phenyl)-carbamic acid 3,3,5-trimethyl-cyclohexyl ester]	5.6 µM
CC1CCCC(OC(=O)Nc2ccccc2O)C1C (centres unmarked) [BIO1643, (2-Hydroxy-phenyl)-carbamic acid 2,3-dimethyl-cyclohexyl ester]	0.7 µM
CC(C)C1CCCCC1OC(=O)Nc1ccccc1O (centres unmarked) [BIO1646, (2-Hydroxy-phenyl)-carbamic acid 2-isopropyl-cyclohexyl ester]	4.7 µM
CC1CC(C)CC(OC(=O)Nc2ccccc2)C1 (centres unmarked) [BIO1685, Phenyl-carbamic acid 3,5-dimethyl-cyclohexyl ester]	18.9 µM
CC1CCCCC1NC(=O)OC1CCC(C(C)(C)C)CC1 (centres unmarked) [BIO1690, (2-Methyl-cyclohexyl)-carbamic acid 4-tert-butyl-cyclohexyl ester]	10.9 µM
CCN(CC)C(=O)OC1C(C)CCC(C)C1C (centres unmarked) [BIO1692, Diethyl-carbamic acid 2,3,6-trimethyl-cyclohexyl ester]	41.7 µM
CCN(CC)C(=O)OC1CCCCC1C(C)C (centres unmarked) [BIO1694, Diethyl-carbamic acid 2-isopropyl-cyclohexyl ester]	38.5 µM
COc1ccccc1NC(=O)OC1C(C)CCC(C)C1C (centres unmarked) [BIO1701, (2-Methoxy-phenyl)-carbamic acid 2,3,6-trimethyl-cyclohexyl ester]	10.2 µM
COc1ccccc1NC(=O)OC1CC(C)CC(C)(C)C1 (centres unmarked) [BIO1703, (2-Methoxy-phenyl)-carbamic acid 3,3,5-trimethyl-cyclohexyl ester]	25.1 µM
CCCC1CCC(OC(=O)NCCCC(OCC)OCC)CC1 (centres unmarked) [BIO1707, (4,4-Diethoxy-butyl)-carbamic acid 4-propyl-cyclohexyl ester]	12.7 µM
CC(C)(C)C1CCCCC1OC(=O)Nc1ccccc1 (centres unmarked) [BIO1740, Phenyl-carbamic acid 2-tert-butyl-cyclohexyl ester]	5.5 µM
O=C(Nc1ccccc1)OC1CCCCC1 [BIO1741, Phenyl-carbamic acid cyclohexyl ester]	12.9 µM
COc1ccccc1NC(=O)OC1CCCCC1C(C)C (centres unmarked) [BIO1744, (2-Methoxy-phenyl)-carbamic acid 2-isopropyl-cyclohexyl ester]	18.3 µM
Cc1ccc(NC(=O)OC2CC(C)CC(C)C2)cc1 (centres unmarked) [BIO1822, p-Tolyl-carbamic acid 3,5-dimethyl-cyclohexyl ester]	52.5 µM
Cc1ccc(NC(=O)OC2CCCCC2C(C)C)cc1 (centres unmarked) [BIO1824, p-Tolyl-carbamic acid 2-isopropyl-cyclohexyl ester]	4.7 µM
Cc1ccc(NC(=O)OC2CCCC(C)C2)cc1 (centres unmarked) [BIO1825, p-Tolyl-carbamic acid 3-methyl-cyclohexyl ester]	72.5 µM
CCCCNC(=O)OC1CC(C)CC(C)C1 (centres unmarked) [BIO1840, n-Butyl-carbamic acid 3,5-dimethyl-cyclohexyl ester]	89.5 µM
CCCCNC(=O)OC1CCCCC1C(C)C (centres unmarked) [BIO1841, Butyl-carbamic acid 2-isopropyl-cyclohexyl ester]	28.5 µM
CCCCNC(=O)OC1CCCC(C)C1C (centres unmarked) [BIO1842, Butyl-carbamic acid 2,3-dimethyl-cyclohexyl ester]	94.1 µM
CCC(C)NC(=O)OC1CC(C)CC(C)(C)C1 (centres unmarked) [BIO1844, sec-Butyl-carbamic acid 3,3,5-trimethyl-cyclohexyl ester]	219 µM
CCCCCCNC(=O)OC1CC(C)CC(C)(C)C1 (centres unmarked) [BIO1850, n-Hexyl-carbamic acid 3,3,5-trimethyl-cyclohexyl ester]	14.3 µM
OC[C@H]1O[C@@H](Oc2ccc(O)cc2)[C@H](O)[C@@H](O)[C@@H]1O [beta-Arbutin, reference compound]	67 µM

What follows are compounds tested on Pigmented pig skin (assay: Depigmenting effect on ex vivo skin (melanin granules, Fontana-Masson stain, image analysis)). Details: 0.5 wt.% in O/W emulsion, applied topically, 6 days.
Type: tissue-based
Description: Pigmented pig skin was excised from animals (slaughtered for meat production; the pig skin model included the subcutis fat layer as described in EP 1 939 27), cut into 4×4×3 mm pieces (length×width×height) and placed in culture at the air-liquid interface on a sterilized cotton pad soaked with 5 ml of customized DMEM (Dulbecco's Modified Eagle Medium). Assays were started 24 h after sample acclimatization at 37° C., 5% CO2. O/W emulsions (as described in more detail below) without (=control) and with the test compounds, respectively, were applied topically and incubated for 6 days. Histological sections were prepared and melanin granules stained by Fontana-Masson technique. The granules were quantified by image analysis.
The O/W emulsions used had the following composition:
Phases A and B are heated to 70° C. separately. Pemulen TR1 as well as Ultrez-21 are dispersed in phase B when heated to 70° C. Phase B/C is added to phase A by mixing with an Ultra Turrax, followed by emulsifying. Phase D is slowly added to phase A/B/C using a paddle mixer and a pH 5.5-6 is adjusted. The formulation is cooled down while mixing with a paddle mixer. Phase E is prepared by dissolving one or more compounds of formula (I) in Hydrolite-5. Subsequently, phase E is added to the mixture of phase A-D.

SMILES	Melanin score vs. Control
CC1CCCC(OC(=O)Nc2ccccc2O)C1C (centres unmarked) [BIO1643, (2-Hydroxy-phenyl)-carbamic acid 2,3-dimethyl-cyclohexyl ester]	−26%
COc1ccccc1NC(=O)OC1CC(C)CC(C)(C)C1 (centres unmarked) [BIO1703, (2-Methoxy-phenyl)-carbamic acid 3,3,5-trimethyl-cyclohexyl ester]	−37%

Same assay, conditions: 1 wt.% in O/W emulsion, applied topically, 6 days

SMILES	Melanin score vs. Control
CCNC(=O)OC1CC(C)CC(C)C1 (centres unmarked) [BIO1561, Ethyl-carbamic acid 3,5-dimethyl-cyclohexyl ester]	−26%
O=C(Nc1ccccc1)OC1CCCCC1 [BIO1741, Phenyl-carbamic acid cyclohexyl ester]	−28%
Cc1ccc(NC(=O)OC2CCCCC2C(C)C)cc1 (centres unmarked) [BIO1824, p-Tolyl-carbamic acid 2-isopropyl-cyclohexyl ester]	−44%
